According to US20170291905A1, “ARGININE […] INHIBITORS AND USES THEREOF” (Epizyme, Inc., priority 2014, published 2017):
Structures can show the parent of a compound that is named as a salt.

The molecules below were run against full-length human PRMT8 isoform 1 (Homo sapiens, UniProt Q9NR22) (assay: PRMT8 biochemical assay (3H-SAM Flashplate, histone H4 31-45 peptide)). Settings: 1.5 nM PRMT8, 30 min preincubation, 150 nM peptide.
Excerpt: S-adenosylmethionine (SAM), S-adenosylhomocysteine (SAH), bicine, Tween20, dimethylsulfoxide (DMSO), bovine skin gelatin (BSG), isopropyl-β-D-thiogalactopyranoside (IPTG), and Tris(2-carboxyethyl)phosphine hydrochloride solution (TCEP) were purchased from Sigma-Aldrich at the highest level of purity possible. ^3H-SAM was purchase from American Radiolabeled Chemicals with a specific activity of 80 Ci/mmol. 384-well streptavidin Flashplates were purchased from PerkinElmer.
Peptide representative of human histone H4 residues 31-45 was synthesized with an N-terminal linker-affinity tag motif and a C-terminal amide cap by 21st Century Biochemicals. The peptide was purified by high-performance liquid chromatography (HPLC) to greater than 95% purity and confirmed by liquid chromatography mass spectrometry (LC-MS). The sequence was Biot-Ahx-[…]-amide (SEQ ID NO.:8).
The resulting construct encodes an N-terminal GST tag and a thrombin cleavage sequence
E. coli (BL21(DE3) Gold, Stratagene) made competent by the CaCl2 method were transformed with the PRMT8 construct and ampicillin selection. Protein over-expression was accomplished by growing the PRMT8 expressing E. coli clone and inducing expression with 0.3 mM IPTG at 16° C. The culture was grown for 12 hours, harvested by centrifugation, and stored at −80° C. for purification.
GST-tagged PRMT8 was eluted with 50 mM Tris, 2 mM glutathione, pH 7.8. Pooled fractions were cleaved by thrombin (10U) and dialysed in buffer A. GST was removed by reloading the cleaved protein sample onto glutathione sepharose column and PRMT8 was collected in the flow-through fractions. PRMT8 was purified further by ceramic hydroxyapatite chromatography. The column was washed with 50 mM phosphate buffer, 100 mM NaCl, 5% glycerol, 5 mM […], pH 7.8 and PRMT8 was eluted by 100 mM phosphate in the same buffer. Protein was concentrated and buffer was exchanged to 50 mM Tris, 300 mM NaCl, 10% glycerol, 5 mM β-mercaptoethanol, pH 7.8 by ultrafiltration. The purity of recovered protein was 89%.
General Procedure for PRMT8 Enzyme Assays on Peptide Substrates.
The assays were all performed in a buffer consisting of 20 mM Bicine (pH=7.6), 1 mM TCEP, 0.005% BSG, and 0.002% Tween 20, prepared on the day of use. Compounds in 100% DMSO (1 ul) were spotted into a polypropylene 384-well V-bottom plates (Greiner) using a Platemate Plus outfitted with a 384-channel head (Thermo Scientific). DMSO (1 ul) was added to Columns 11, 12, 23, 24, rows A-H for the maximum signal control and 1 ul of SAH, a known product and inhibitor of PRMT8, was added to columns 11, 12, 23, 24, rows I-P for the minimum signal control. A cocktail (40 ul) containing the PRMT8 enzyme was added by Multidrop Combi (Thermo-Fisher). The compounds were allowed to incubate with PRMT8 for 30 min at room temperature, then a cocktail (10 ul) containing ^3H-SAM and peptide was added to initiate the reaction (final volume=51 ul). The final concentrations of the components were as follows: PRMT8 was 1.5 nM, ^3H-SAM was 50 nM, non-radiolabeled SAM was 550 nM, peptide was 150 nM, SAH in the minimum signal control wells was 1 mM, and the DMSO concentration was 2%. The assays were stopped by the addition of non-radiolabeled SAM (10 ul) to a final concentration of 400 uM, which dilutes the ^3H-SAM to a level where its incorporation into the peptide substrate is no longer detectable. 50 ul of the reaction in the 384-well polypropylene plate was then transferred to a 384-well Flashplate and the biotinylated peptides were allowed to bind to the streptavidin surface for at least 1 hour before being washed once with 0.1% Tween20 in a Biotek ELx405 plate washer. The plates were then read in a PerkinElmer TopCount plate reader to measure the quantity of ^3H-labeled peptide bound to the Flashplate surface, measured as disintegrations per minute (dpm) or alternatively, referred to as counts per minute (cpm). […]

Chain of full-length human PRMT8 isoform 1 (Q9NR22 whole entry, canonical isoform): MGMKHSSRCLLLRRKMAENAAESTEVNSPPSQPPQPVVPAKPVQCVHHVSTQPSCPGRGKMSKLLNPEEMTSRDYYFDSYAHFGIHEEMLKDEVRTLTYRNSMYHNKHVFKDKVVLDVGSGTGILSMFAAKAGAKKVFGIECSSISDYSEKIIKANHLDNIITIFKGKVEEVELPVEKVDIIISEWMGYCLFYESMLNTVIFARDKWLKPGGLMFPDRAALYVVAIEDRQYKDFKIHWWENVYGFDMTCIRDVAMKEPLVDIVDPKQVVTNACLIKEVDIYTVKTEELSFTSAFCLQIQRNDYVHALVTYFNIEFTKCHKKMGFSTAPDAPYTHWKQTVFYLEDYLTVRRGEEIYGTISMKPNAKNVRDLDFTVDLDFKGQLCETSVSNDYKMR

Compound | IC50 [nM]
CNCCN(C)Cc1c[nH]nc1C1CCC(OCCCOC)C2(CCCC2)C1 (mixture of isomers) [compound 19, N1-((3-(10-(3-methoxypropoxy)spiro[4.5]decan-7-yl)-1H-pyrazol-4-yl)methyl)-N1,N2-dimethylethane-1,2-diamine dihydrochloride] | 30.1
CNCCN(C)Cc1c[nH]nc1C1CC(COCC2CC2)CC(COCC2CC2)C1 (centres unmarked) [compound 2] | 365
CNCCN(C)Cc1c[nH]nc1C1C[C@@H](C(=O)N(C)CC(C)C)C(C)(C)[C@H](C(=O)N(C)CC(C)C)C1 (some centres unmarked) [compound 12] | > 10000
CNCCN(C)Cc1c[nH]nc1C1C[C@H](C(=O)NCCOC)C(C)(C)[C@H](C(=O)NCCOC)C1 (some centres unmarked) [compound 13] | > 10000
CCN(C)C(=O)C1CC(c2n[nH]cc2CN(C)CCNC)CC(C(=O)NCCC(C)C)C1(C)C (centres unmarked) [compound 14, N1-ethyl-N3-isopentyl-N1,2,2-trimethyl-5-(4-((methyl(2-(methylamino)ethyl)amino)methyl)-1H-pyrazol-3-yl)cyclohexane-1,3-dicarboxamide] | > 10000
CNCCN(C)Cc1c[nH]nc1C1CCC(C)(C)[C@H](OCC(C)C)C1 (stereo partly drawn) [compound 20, ({3-[(3R)-4,4-dimethyl-3-(2-methylpropoxy)cyclohexyl]-1H-pyrazol-4-yl}methyl)(methyl)[2-(methylamino)ethyl]amine] | 24.5
CCC1CC(c2n[nH]cc2CN(C)CCNC)CC(C(=O)NCCOC)C1(C)C (centres unmarked) [compound 21, 3-ethyl-N-(2-methoxyethyl)-2,2-dimethyl-5-[4-([methyl[2-(methylamino)ethyl]amino]methyl)-1H-pyrazol-3-yl]cyclohexane-1-carboxamide dihydrochloride] | 614
CNCCN(C)Cc1cn(C)nc1C1CCC(C)(C)[C@@H](C(=O)NCC(C)C)C1 (some centres unmarked) [compound 25] | 2790
CNCCNCc1c[nH]nc1[C@H]1CC[C@]2(CC1)CC(C)(C)CO2 [compound 29, N1-((3-((5r,8r)-3,3-dimethyl-1-oxaspiro[4.5]decan-8-yl)-1H-pyrazol-4-yl)methyl)-N2-methylethane-1,2-diamine] | 258
CNCCN(C)Cc1c[nH]nc1C1CCC(C)(C)[C@H](COCCCOC)C1 (stereo partly drawn) [compound 30, {2-[({3-[(3R)-3-[(3-methoxypropoxy)methyl]-4,4-dimethylcyclohexyl]-1H-pyrazol-4-yl}methyl)(methyl)amino]ethyl}(methyl)amine] | 187
CCOC[C@@H]1CC(c2n[nH]cc2CN(C)CCNC)CCC1(C)C (stereo partly drawn) [compound 31, {2-[({3-[(3R)-3-(ethoxymethyl)-4,4-dimethylcyclohexyl]-1H-pyrazol-4-yl}methyl)(methyl)amino]ethyl}(methyl)amine] | 325
CNCCN(C)Cc1c[nH]nc1C1CCC(C)(C)[C@H](CO)C1 (stereo partly drawn) [compound 32, [(1R)-2,2-dimethyl-5-[4-({methyl[2-(methylamino)ethyl]amino}methyl)-1H-pyrazol-3-yl]cyclohexyl]methanol] | 291
CCC1(CC)C[C@]2(CC[C@@H](c3n[nH]cc3CN(C)CCNC)CC2)OC1=O [compound 34, (5r,8r)-3,3-diethyl-8-(4-((methyl(2-(methylamino)ethyl)amino)methyl)-1H-pyrazol-3-yl)-1-oxaspiro[4.5]decan-2-one] | 146

The remaining molecules from weak to strong by IC50, led by results:

IC50 [nM] | Compound
106 | CNCCN(C)Cc1c[nH]nc1[C@H]1CC[C@]2(CCN(CCC(C)C)C2=O)CC1 [compound 10]
95.8 | CCC1(CC)C[C@]2(CC[C@H](c3n[nH]cc3CN(C)CCNC)CC2)OC1=O [compound 33, (5s,8s)-3,3-diethyl-8-(4-((methyl(2-(methylamino)ethyl)amino)methyl)-1H-pyrazol-3-yl)-1-oxaspiro[4.5]decan-2-one]
91.8 | CNCCN(C)Cc1c[nH]nc1[C@H]1CC[C@@H](COCC(F)(F)F)CC1 [compound 23, N1,N2-dimethyl-N1-((3-((1s,4s)-4-((2,2,2-trifluoroethoxy)methyl)cyclohexyl)-1H-pyrazol-4-yl)methyl)ethane-1,2-diamine]
67.6 | CNCCN(C)Cc1c[nH]nc1[C@@H]1CC[C@@H](OCCCOC)C2(CCCC2)C1 (racemic) [compound 26, N1-((3-((7R,10R)-10-(3-methoxypropoxy)spiro[4.5]decan-7-yl)-1H-pyrazol-4-yl)methyl)-N1,N2-dimethylethane-1,2-diamine]
62.4 | CNCCN(C)Cc1c[nH]nc1C1CCC(COCC(C)C)(COCC(C)C)CC1 [compound 6]
32.8 | CNCCN(C)Cc1c[nH]nc1[C@H]1CC[C@@]2(CCCCO2)CC1 [compound 3]
31.2 | CNCCN(C)Cc1c[nH]nc1[C@@H]1CC[C@H](OCCCOC)C2(CCCC2)C1 (racemic) [compound 27, N1-((3-((7R,10S)-10-(3-methoxypropoxy)spiro[4.5]decan-7-yl)-1H-pyrazol-4-yl)methyl)-N1,N2-dimethylethane-1,2-diamine]
26.4 | CNCCN(C)Cc1c[nH]nc1C1=CCC(COCC(F)(F)F)CC1 (centres unmarked) [compound 16, N1,N2-dimethyl-N1-((3-(4-((2,2,2-trifluoroethoxy)methyl)cyclohex-1-en-1-yl)-1H-pyrazol-4-yl)methyl)ethane-1,2-diamine]
20.7 | CNCCNCc1c[nH]nc1[C@H]1CC[C@@]2(CC1)CC(C)(C)CO2 [compound 28, N1-((3-((5s,8s)-3,3-dimethyl-1-oxaspiro[4.5]decan-8-yl)-1H-pyrazol-4-yl)methyl)-N2-methylethane-1,2-diamine]
20.3 | CCC1(CC)CC2(CCC(c3n[nH]cc3CN(C)CCNC)CC2)N(C)C1=O (centres unmarked) [compound 22, 3,3-diethyl-1-methyl-8-(4-((methyl(2-(methylamino)ethyl)amino)methyl)-1H-pyrazol-3-yl)-1-azaspiro[4.5]decan-2-one]
18.3 | CNCCN(C)Cc1c[nH]nc1[C@H]1CC[C@H](COCC(F)(F)F)CC1 [compound 24, N1,N2-dimethyl-N1-((3-((1r,4r)-4-((2,2,2-trifluoroethoxy)methyl)cyclohexyl)-1H-pyrazol-4-yl)methyl)ethane-1,2-diamine]
17.7 | CNCCN(C)Cc1c[nH]nc1[C@H]1CC[C@@]2(CCCOC2)CC1 [compound 5, N1-((3-((6r,9r)-2-oxaspiro[5.5]undecan-9-yl)-1H-pyrazol-4-yl)methyl)-N1,N2-dimethylethane-1,2-diamine]
16 | CNCCN(C)Cc1c[nH]nc1[C@H]1CC[C@]2(CCCOC2)CC1 [compound 4, N1-((3-((6s,9s)-2-oxaspiro[5.5]undecan-9-yl)-1H-pyrazol-4-yl)methyl)-N1,N2-dimethylethane-1,2-diamine]
15.3 | CNCCN(C)Cc1c[nH]nc1C1=CCC(CF)(CF)CC1 [compound 15, N-((3-(4,4-bis(fluoromethyl)cyclohex-1-en-1-yl)-1H-pyrazol-4-yl)methyl)-N1,N2-dimethylethane-1,2-diamine]
11.1 | CNCCN(C)Cc1c[nH]nc1C1CCC2(CCC(OC)CC2)CC1 (centres unmarked) [compound 9, N1-((3-(9-methoxyspiro[5.5]undecan-3-yl)-1H-pyrazol-4-yl)methyl)-N1,N2-dimethylethane-1,2-diamine]
10.2 | CNCCN(C)Cc1c[nH]nc1[C@H]1CC[C@@]2(CCN(CCC(C)C)C2=O)CC1 [compound 11, (5r,8r)-2-isopentyl-8-(4-((methyl(2-(methylamino)ethyl)amino)methyl)-1H-pyrazol-3-yl)-2-azaspiro[4.5]decan-1-one]
